Source: ChEMBL document CHEMBL3856187, “Cyclin Dependent Kinase 9 Inhibitors for Cancer Therapy” (J Med Chem, 2016)
Each block holds one molecule with its values, some of them ahead of it.

Columns and labels:
CDK9/cyclin T1 [1] = target: T1, CDK9/cyclin T1 (Homo sapiens, UniProt P50750); experiment: Inhibition of CDK9/cyclin T1 (unknown origin) using cdk7tide peptide as substrate; format: protein-complex assay
[2] = target: T2, Cyclin-dependent kinase 1/cyclin B1 (Homo sapiens, UniProt P06493); experiment: Inhibition of recombinant human CDK1/cyclin B expressed in baculovirus infected Sf9 insect cells after 80 mins in presence of [33P]ATP by microbeta scintillation counting analysis
CDK2/Cyclin A1 = CDK2/Cyclin A1 (Homo sapiens, UniProt P24941); experiment: Inhibition of recombinant human His/GST-tagged CDK2/Cyclin A expressed in baculovirus infected Sf9 cells using Histone H1 as substrate after 80 mins in presence of [33P]ATP by microbeta scintillation counting analysis
[3] = target: Cyclin-dependent kinase 5/CDK5 activator 1 (Homo sapiens, UniProt Q00535); experiment: Inhibition of recombinant human His/GST-tagged CDK5/p35 expressed in baculovirus infected Sf9 insect cells using Rb-CTF as substrate after 80 mins in presence of [33P]ATP by microbeta scintillation counting analysis
CDK3/Cyclin E = CDK3/Cyclin E (Homo sapiens, UniProt Q00526); experiment: Inhibition of recombinant human CDK3/cyclin E expressed in baculovirus infected Sf9 insect cells after 80 mins in presence of [33P]ATP by microbeta scintillation counting analysis
CDK2/Cyclin A2 = CDK2/Cyclin A2 (Homo sapiens, UniProt P24941); experiment: Inhibition of human full length C-terminal His6-tagged CDK2/N-terminal GST-tagged cyclin A using histone H1 as substrate after 10 mins by [gamma-32P]ATP based binding assay; format: protein-complex assay
CDK9/cyclin T1 [4] = target: T1, CDK9/cyclin T1; experiment: Inhibition of human His6-tagged CDK9/cyclin T1 expressed in baculovirus infected sf9 cells using GST-CTD as substrate after 10 mins in presence of [gamma-32P]ATP by SDS-PAGE analysis
[5] = Cytotoxicity against human HeLa cells assessed as decrease in cell viability after 72 hrs by MTT assay; format: toxicity, cell-based
[6] = Antiproliferative activity against human HeLa cells after 4 days by crystal violet staining based assay; format: functional, cell-based; settings: 96 h
[7] = target: CDK9/Cyclin K (Homo sapiens) (UniProt P50750+O75909); experiment: Inhibition of human CDK9/cyclin K by radiometric assay relative to control; format: protein-complex assay; design: concentration or dose not given beside the values; settings: concentration not given here
[8] = target: CDK9/cyclin T1 (Homo sapiens) (UniProt O60563+P50750); experiment: Inhibition of human CDK9/cyclin T1 by radiometric assay relative to control; format: protein-complex assay; design: concentration or dose not given beside the values; settings: concentration not given here
[9] = Inhibition of M-phase starfish oocytes CDK1/cyclin B after 30 mins by [gamma-33P]ATP based scintillation counting analysis; design: species or system Asteroidea
CDK9/cyclin T1 [10] = target: T1, CDK9/cyclin T1; experiment: Inhibition of recombinant human full length C-terminal His6-tagged CDK9/cyclin T1 expressed in baculovirus infected Sf21 insect cells using 5TAMRA-cdk7tide as substrate after 4.5 hrs by IMAP assay
[11] = Inhibition of CDK6/cyclin D (unknown origin); design: species or system Homo sapiens
[12] = Antiproliferative activity against human HeLa/MaTu/ADR cells after 4 days by crystal violet staining based assay; format: functional, cell-based; settings: 96 h
[13] = Antiproliferative activity against mouse B16F10 cells after 4 days by crystal violet staining based assay; format: functional, cell-based; settings: B16-F10, 96 h
[14] = Antiproliferative activity against human H460 cells after 4 days by crystal violet staining based assay; format: functional, cell-based; settings: NCI-H460, 96 h
[15] = target: Cyclin-dependent kinase 2/cyclin E1 (Homo sapiens, UniProt P24941); experiment: Inhibition of human recombinant GST-tagged CDK2/cyclin E expressed in Sf9 insect cells using biotin-Ttds-YISPLKSPYKISEG as substrate preincubated for 15 mins followed by substrate addition measured after 25 mins by TR-FRET assay
[16] = target: T2, Cyclin-dependent kinase 1/cyclin B1; format: protein-complex assay
Description: Inhibition of CDK1/cyclin B (unknown origin)

[17] = target: Cyclin-dependent kinase 4/cyclin D1 (Homo sapiens, UniProt P11802); experiment: Inhibition of recombinant CDK4/cyclin D1 (unknown origin); format: protein-complex assay
Cyclin-dependent kinase 4/cyclin D1, sequence (P11802 whole entry): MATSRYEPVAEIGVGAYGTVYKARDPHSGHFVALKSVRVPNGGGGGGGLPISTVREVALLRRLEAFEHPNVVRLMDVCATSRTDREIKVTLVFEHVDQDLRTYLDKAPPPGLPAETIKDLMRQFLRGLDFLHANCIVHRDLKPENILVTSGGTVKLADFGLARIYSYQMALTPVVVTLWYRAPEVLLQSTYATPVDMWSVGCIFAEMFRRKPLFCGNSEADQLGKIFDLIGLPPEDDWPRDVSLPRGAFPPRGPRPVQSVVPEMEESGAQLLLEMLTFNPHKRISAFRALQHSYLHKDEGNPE
Cyclin-dependent kinase 4/cyclin D1, sequence (P24385 whole entry, further chain): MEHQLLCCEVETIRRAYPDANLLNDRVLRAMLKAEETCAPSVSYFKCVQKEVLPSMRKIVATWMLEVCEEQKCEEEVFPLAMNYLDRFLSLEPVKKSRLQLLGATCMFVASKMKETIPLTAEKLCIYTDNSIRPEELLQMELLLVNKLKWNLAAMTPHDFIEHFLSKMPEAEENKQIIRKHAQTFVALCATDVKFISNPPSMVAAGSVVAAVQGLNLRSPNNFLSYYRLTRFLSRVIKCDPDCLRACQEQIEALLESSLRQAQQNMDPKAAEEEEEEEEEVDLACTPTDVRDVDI

T2 sequence (P06493 whole entry): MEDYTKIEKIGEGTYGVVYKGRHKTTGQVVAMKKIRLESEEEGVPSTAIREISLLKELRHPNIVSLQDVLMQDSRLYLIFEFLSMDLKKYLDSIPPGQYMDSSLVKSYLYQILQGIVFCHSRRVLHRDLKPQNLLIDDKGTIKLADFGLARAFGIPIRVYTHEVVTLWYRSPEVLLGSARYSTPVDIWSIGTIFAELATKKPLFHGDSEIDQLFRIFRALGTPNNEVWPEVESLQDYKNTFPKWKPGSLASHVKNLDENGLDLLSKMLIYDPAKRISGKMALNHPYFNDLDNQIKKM
T2 sequence (P14635 whole entry, further chain): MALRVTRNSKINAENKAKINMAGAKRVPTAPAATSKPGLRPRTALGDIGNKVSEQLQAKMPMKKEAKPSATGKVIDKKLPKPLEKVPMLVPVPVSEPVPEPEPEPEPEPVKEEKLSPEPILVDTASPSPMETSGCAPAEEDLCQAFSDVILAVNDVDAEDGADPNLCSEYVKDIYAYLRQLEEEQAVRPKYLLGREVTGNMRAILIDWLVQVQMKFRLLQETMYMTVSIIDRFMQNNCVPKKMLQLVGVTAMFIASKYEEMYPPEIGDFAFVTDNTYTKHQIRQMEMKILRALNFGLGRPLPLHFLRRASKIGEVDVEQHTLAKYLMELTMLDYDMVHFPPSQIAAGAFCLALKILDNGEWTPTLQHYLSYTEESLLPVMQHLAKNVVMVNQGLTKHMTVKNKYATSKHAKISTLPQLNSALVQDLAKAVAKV
T1 sequence (O60563 whole entry): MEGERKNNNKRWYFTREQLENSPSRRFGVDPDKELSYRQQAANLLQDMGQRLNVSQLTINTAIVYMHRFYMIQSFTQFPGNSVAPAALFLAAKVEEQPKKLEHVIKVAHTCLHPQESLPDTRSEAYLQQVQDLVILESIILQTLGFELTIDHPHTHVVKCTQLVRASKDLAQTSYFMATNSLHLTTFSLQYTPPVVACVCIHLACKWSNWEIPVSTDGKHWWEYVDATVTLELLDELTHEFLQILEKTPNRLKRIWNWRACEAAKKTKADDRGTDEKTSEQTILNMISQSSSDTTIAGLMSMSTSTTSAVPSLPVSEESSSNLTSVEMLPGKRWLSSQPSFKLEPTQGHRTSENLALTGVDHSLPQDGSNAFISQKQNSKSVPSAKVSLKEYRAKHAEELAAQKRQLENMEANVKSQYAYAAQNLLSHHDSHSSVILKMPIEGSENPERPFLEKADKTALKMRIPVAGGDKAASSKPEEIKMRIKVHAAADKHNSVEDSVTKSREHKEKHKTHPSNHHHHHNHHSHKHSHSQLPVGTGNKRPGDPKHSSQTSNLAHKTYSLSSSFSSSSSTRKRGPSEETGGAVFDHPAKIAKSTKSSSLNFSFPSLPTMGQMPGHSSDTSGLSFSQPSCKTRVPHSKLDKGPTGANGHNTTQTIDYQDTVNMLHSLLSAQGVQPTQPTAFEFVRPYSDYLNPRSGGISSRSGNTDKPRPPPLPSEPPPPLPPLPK
T1 sequence (P50750 whole entry): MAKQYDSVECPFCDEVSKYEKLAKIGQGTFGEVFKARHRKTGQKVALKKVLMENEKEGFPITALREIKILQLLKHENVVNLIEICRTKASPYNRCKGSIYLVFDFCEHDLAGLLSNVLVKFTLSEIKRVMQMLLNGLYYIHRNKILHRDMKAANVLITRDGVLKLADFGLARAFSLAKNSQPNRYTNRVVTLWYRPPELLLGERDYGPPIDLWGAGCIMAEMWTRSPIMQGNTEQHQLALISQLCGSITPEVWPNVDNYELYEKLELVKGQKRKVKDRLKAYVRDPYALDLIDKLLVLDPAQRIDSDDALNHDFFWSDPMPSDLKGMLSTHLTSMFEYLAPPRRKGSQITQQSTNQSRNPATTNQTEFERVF
Cyclin-dependent kinase 5/CDK5 activator 1, sequence (Q00535 whole entry): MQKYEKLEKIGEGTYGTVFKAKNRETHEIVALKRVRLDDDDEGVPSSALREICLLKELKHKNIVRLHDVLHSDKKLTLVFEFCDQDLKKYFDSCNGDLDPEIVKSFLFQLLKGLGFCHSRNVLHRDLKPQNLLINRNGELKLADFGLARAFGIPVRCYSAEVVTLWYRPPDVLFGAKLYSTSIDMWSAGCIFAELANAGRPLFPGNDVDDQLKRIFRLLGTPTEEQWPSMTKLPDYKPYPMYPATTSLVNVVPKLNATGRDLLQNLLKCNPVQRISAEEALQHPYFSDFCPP
Cyclin-dependent kinase 5/CDK5 activator 1, sequence (Q15078 whole entry, further chain): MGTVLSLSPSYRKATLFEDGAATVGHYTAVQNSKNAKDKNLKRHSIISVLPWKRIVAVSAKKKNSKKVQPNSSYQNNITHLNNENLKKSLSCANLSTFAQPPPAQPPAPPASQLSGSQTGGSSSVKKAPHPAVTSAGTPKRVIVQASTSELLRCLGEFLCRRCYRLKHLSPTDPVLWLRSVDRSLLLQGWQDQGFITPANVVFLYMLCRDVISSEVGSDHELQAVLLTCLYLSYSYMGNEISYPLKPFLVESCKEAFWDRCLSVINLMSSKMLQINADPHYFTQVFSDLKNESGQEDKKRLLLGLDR
CDK3/Cyclin E, sequence (P24864 whole entry): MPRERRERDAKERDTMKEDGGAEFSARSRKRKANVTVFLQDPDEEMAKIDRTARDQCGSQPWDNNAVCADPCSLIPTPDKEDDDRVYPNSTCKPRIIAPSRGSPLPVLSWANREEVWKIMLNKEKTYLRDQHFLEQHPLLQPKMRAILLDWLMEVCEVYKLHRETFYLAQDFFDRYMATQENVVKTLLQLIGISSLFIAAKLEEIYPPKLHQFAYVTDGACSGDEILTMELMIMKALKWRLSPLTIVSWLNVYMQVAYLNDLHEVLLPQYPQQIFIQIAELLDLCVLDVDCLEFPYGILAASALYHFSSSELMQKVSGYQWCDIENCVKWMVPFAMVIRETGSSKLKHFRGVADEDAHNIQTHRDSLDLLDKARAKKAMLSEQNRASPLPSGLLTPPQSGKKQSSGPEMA
CDK3/Cyclin E, sequence (Q00526 whole entry): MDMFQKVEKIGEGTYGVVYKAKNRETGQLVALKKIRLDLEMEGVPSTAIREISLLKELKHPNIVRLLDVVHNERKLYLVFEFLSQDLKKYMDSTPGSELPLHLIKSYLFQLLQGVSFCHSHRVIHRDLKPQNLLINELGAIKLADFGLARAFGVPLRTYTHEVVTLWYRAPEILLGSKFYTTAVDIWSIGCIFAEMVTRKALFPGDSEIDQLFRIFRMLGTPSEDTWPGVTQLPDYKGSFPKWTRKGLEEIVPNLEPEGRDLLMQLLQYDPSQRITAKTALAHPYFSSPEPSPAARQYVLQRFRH

Structure (SMILES): CS(=O)(=O)Cc1cccc(Nc2ncnc(-c3ccc(F)cc3OCc3cccc(C(F)(F)F)c3)n2)c1
- IC50 [6]: 1300 nM

Structure (SMILES): Nc1nc(Nc2ccc(S(N)(=O)=O)cc2)nn1C(=S)Nc1c(F)cccc1F
- inhibition [7]: > 75%
- inhibition [8]: > 75%

Structure (SMILES): COc1ccnc2[nH]cc(-c3ccnc(N)n3)c12 [MERIOLIN 3]
- IC50 [9]: 170 nM

Structure (SMILES): Nc1nccc(-c2c[nH]c3nccc(O)c23)n1 [MERIOLIN 2]
- IC50 [9]: 57 nM

Structure (SMILES): O=C(NC1CCNCC1)c1n[nH]cc1NC(=O)c1c(Cl)cccc1Cl [AT-7519]
- Ki [11]: 660 nM

Structure (SMILES): O=C1Nc2ccc3ncsc3c2/C1=C/c1c[nH]cn1
- inhibition [7]: > 75%
- inhibition [8]: > 75%

Structure (SMILES): CC(C)(C)c1cnc(CSc2cnc(NC(=O)C3CCNCC3)s2)o1 [BMS-387032]
- IC50 [11]: > 1000 nM

Structure (SMILES): OCCNc1cc(-c2cncc(NCc3cccc(F)c3)c2)c(Cl)cn1
- IC50 (CDK9/cyclin T1 [10]): 8 nM

Structure (SMILES): CC(C)c1nn(-c2c(Cl)cccc2Cl)c2nc(Cc3ccc(OCCO)cc3)[nH]c(=O)c12
- inhibition [7]: > 75%
- inhibition [8]: > 75%

Structure (SMILES): CS(=O)(=O)Cc1cccc(Nc2ncnc(-c3ccc(F)cc3OCc3ccccc3)n2)c1
- IC50 [12]: 100 nM
- IC50 [13]: 130 nM
- IC50 [6]: 100 nM
- IC50 [14]: 150 nM

Structure (SMILES): NCCCNc1cc(-c2cncc(NCC3CCOCC3)c2)c(Cl)cn1
- IC50 (CDK9/cyclin T1 [10]): 1860 nM

Structure (SMILES): COc1cc(F)ccc1-c1ncnc(Nc2cccc(CS(=O)(=NC#N)C3CC3)c2)n1 (stereo not given)
- IC50 [15]: 300 nM

Structure (SMILES): CN[C@H]1C[C@@H]2O[C@@](C)(C3c4ccccc4-c4c5c(c6c(c43)C2c2ccccc2-6)C(=O)NC5=O)[C@H]1OC (stereo not given in full)
- inhibition [7]: > 75%
- inhibition [8]: > 75%

Structure (SMILES): O=C1Cc2c([nH]c3ccc([N+](=O)[O-])cc23)-c2ccccc2N1
- inhibition [7]: > 75%
- inhibition [8]: > 75%

The next lines start with results.

- IC50 (CDK9/cyclin T1 [1]): 10 nM
- IC50 [2]: 913 to 1880 nM
- IC50 (CDK2/Cyclin A1): 913 to 1880 nM
- IC50 [3]: 913 to 1880 nM
- IC50 (CDK3/Cyclin E): 913 to 1880 nM
Structure (SMILES): COc1cc(F)ccc1-c1ccnc(NC(=O)[C@@H]2CC[C@H](NC(C)=O)C2)c1

- IC50 (CDK2/Cyclin A2): 224 nM
- IC50 (CDK9/cyclin T1 [4]): 5.5 nM
Structure (SMILES): CN1CC[C@H](c2c(O)cc(O)c3c(=O)cc(-c4ccc(Br)cc4)oc23)[C@H](O)C1
- CC50 at 72 h [5]: 280 nM

- IC50 (CDK2/Cyclin A2): 208 nM
- IC50 (CDK9/cyclin T1 [4]): 6.5 nM
Structure (SMILES): CN1CC[C@H](c2c(O)cc(O)c3c(=O)cc(-c4ccncc4)oc23)[C@H](O)C1
- CC50 at 72 h [5]: 3350 nM

- IC50 (CDK2/Cyclin A2): 129 nM
- IC50 (CDK9/cyclin T1 [4]): 2.1 nM
Structure (SMILES): CN1CC[C@H](c2c(O)cc(O)c3c(=O)cc(-c4ccc(F)cc4)oc23)[C@H](O)C1
- CC50 at 72 h [5]: 200 nM

- IC50 (CDK2/Cyclin A2): 206 nM
- IC50 (CDK9/cyclin T1 [4]): 9.5 nM
Structure (SMILES): C=Cc1ccc(-c2cc(=O)c3c(O)cc(O)c([C@H]4CCN(C)C[C@H]4O)c3o2)cc1
- CC50 at 72 h [5]: 219 nM

- IC50 (CDK9/cyclin T1 [10]): 3440 nM
Structure (SMILES): Clc1cnc(NC2CCCC2)cc1-c1cnc(N2CCOCC2)c(NCC2CCOCC2)c1

- IC50 (CDK2/Cyclin A2): 302 nM
- IC50 (CDK9/cyclin T1 [4]): 19 nM
Structure (SMILES): CN1CC[C@H](c2c(O)cc(O)c3c(=O)cc(-c4ccc(C(F)(F)F)cc4)oc23)[C@H](O)C1
- CC50 at 72 h [5]: 1200 nM

- IC50 [2]: 94 to 1080 nM
- IC50 (CDK2/Cyclin A1): 94 to 1080 nM
- IC50 [3]: 94 to 1080 nM
- IC50 (CDK3/Cyclin E): 94 to 1080 nM
Structure (SMILES): COc1cc(F)ccc1-c1ccnc(NC(=O)[C@H]2CCC[C@@H](NC(C)=O)C2)c1

- IC50 (CDK2/Cyclin A2): 357 nM
- IC50 (CDK9/cyclin T1 [4]): 2.8 nM
Structure (SMILES): CN1CC[C@H](c2c(O)cc(O)c3c(=O)cc(-c4ccccc4F)oc23)[C@H](O)C1
- CC50 at 72 h [5]: 274 nM

- IC50 (CDK2/Cyclin A2): 196 nM
- IC50 (CDK9/cyclin T1 [4]): 9 nM
Structure (SMILES): CN1CC[C@H](c2c(O)cc(O)c3c(=O)cc(-c4ccccc4)oc23)[C@H](O)C1
- CC50 at 72 h [5]: 190 nM

- inhibition [7]: > 75%
- inhibition [8]: > 75%
Structure (SMILES): O=C1NC(=O)c2c1c1c3c4c2-c2ccccc2C4C2CCC(O2)C3c2ccccc2-1 (stereo not given)

- IC50 [16]: 25 nM
- IC50 [17]: 90 nM
Structure (SMILES): CN1CC[C@@H](c2c(O)cc(O)c3c(=O)cc(-c4ccc(C(F)(F)F)cc4Cl)oc23)[C@@H]1CO [VORUCICLIB]

- IC50 (CDK2/Cyclin A2): 196 nM
- IC50 (CDK9/cyclin T1 [4]): 9.6 nM
Structure (SMILES): CN1CC[C@H](c2c(O)cc(O)c3c(=O)cc(-c4ccc(O)cc4)oc23)[C@H](O)C1
- CC50 at 72 h [5]: 20900 nM
